Reference: patent US20060084688A1, “Aromatic sulfone hydroxamic acid metalloprotease inhibitor” (priority 1997, published 2006)
Structures can show the parent of a compound that is named as a salt.

Settings: for t1/2: Rat Intraveneous, 20 mpk

Structure (SMILES)	t1/2 [h]	also measured
Cl.O=C(NO)C1(S(=O)(=O)c2ccc(Oc3ccc4c(c3)OCCO4)cc2)CCN(C2CC2)CC1 [Example 408, 1-cyclopropyl-4-[[4-[(2,3-dihydro-1,4-benzodioxin-6-yl)oxy]phenyl]-sulfonyl]-N-hydroxy-4-piperidine-carboxamide, monohydrochloride]	3.30	–
O=C(NO)C1(S(=O)(=O)c2ccc(Oc3ccc(C(F)(F)F)cc3)cc2)CCN(Cc2ccccn2)CC1 [Example 391, N-hydroxy-1-(2-pyridinylmethyl)-4-[[4-[4-(trifluoromethyl)phenoxy]phenyl]-sulfonyl]-4-piperidinecarboxamide, dihydrochloride]	1.45	–
NCC(=O)Nc1ccc(Sc2ccc(S(=O)(=O)C3(C(=O)NO)CCSCC3)cc2)cc1 [Example 118]	1.85	–
Cl.O=C(NO)C1(S(=O)(=O)c2ccc(Oc3ccccc3)cc2)CCN(C2CC2)CC1 [Example 17, 1-cyclopropyl-N-hydroxy-4-[(4-phenoxyphenyl)sulfonyl]-4-piperidinecarboxamide]	–	Blood Level @ 3 min (rat, in vivo, 20 mg/kg): 63440 ng/mL; BA (rat, in vivo, po, 20 mg/kg): 35.9%; Blood Level @ 6 hr (rat, in vivo, po, 20 mg/kg): 135 ng/mL
O=C(O)CNc1ccc(Oc2ccc(S(=O)(=O)C3(C(=O)NO)CCSCC3)cc2)cc1 [Example 117, tetrahydro-N-hydroxy-4-[[4-[4-hydroxyphenylglycine)]phenyl]sulfonyl 2H-thionyran-4-carboxamide]	0.78	–
O=C(NO)C1(S(=O)(=O)c2ccc(Oc3ccccc3)cc2)CC[S+]([O-])CC1 (stereo not shown) [Example 111]	0.65	–
CN1CCC(C(=O)NO)(S(=O)(=O)c2ccc(Sc3ccccc3)cc2)CC1.Cl [Example 33, N-hydroxy-1-methyl-4-[[4-(phenylthio)phenyl]sulfonyl]-4-piperidinecarboxamide, monohydrochloride]	1.91	–
Cl.O=C(NO)C1(S(=O)(=O)c2ccc(Oc3ccc(OC(F)(F)F)cc3)cc2)CCNCC1 [Example 410, N-hydroxy-4-[[4-[(trifluoromethoxy)phenoxy]phenyl]sulfonyl]-4-piperidinecarboxamide, monohydrochloride]	1.78	–
O=C(NO)C1(S(=O)(=O)c2ccc(Oc3ccc(SC(F)(F)F)cc3)cc2)CCOCC1 [Example 382, Tetrahydro-N-hydroxy-4-[[4-[4-[(trifluoromethyl)thio]phenoxy]phenyl]-sulfonyl]-2H-pyran-4-carboxamide]	1.71	–
COCCN1CCC(C(=O)NO)(S(=O)(=O)c2ccc(Oc3ccc(OC(F)(F)F)cc3)cc2)CC1.Cl [Example 416, N-hydroxy-1-(2-methoxyethyl)-4-[[4-[4-(trifluoro-methoxy)phenoxy]phenyl]sulfonyl}-4-piperidinecarboxamide, monohydrochloride]	2.94	–
O=C(NO)C1(S(=O)(=O)c2ccc(Oc3ccccc3)cc2)CCOCC1 [Example 94, Tetrahydro-N-hydroxy-4-[(4-phenoxyphenyl)sulfonyl]-2H-pyran-4-carboxamide]	1.71	–
Cl.O=C(NO)C1(S(=O)(=O)c2ccc(Oc3ccc(C(F)(F)F)cc3)cc2)CCN(C2CC2)CC1 [Example 427, 1-cyclopropyl-N-hydroxy-4-[[4-[4-(trifluoromethyl)phenoxy]phenyl]sulfonyl]-4-piperidinecarboxamide, monohydrochloride]	2.85	–
C#CCN1CCC(C(=O)NO)(S(=O)(=O)c2ccc(Oc3ccc(Cl)c(C)c3)cc2)CC1.Cl [Example 81, 4-[(4-(4-chloro-3-methylphenoxy)phenyl]sulfonyl]-N-hydroxy-1-(2-propynyl)-4-piperidinecarboxamide, monohydrochloride]	0.76	–
O=C(NO)C1(S(=O)(=O)c2ccc(Oc3ccc(C(F)(F)F)cc3)cc2)CCN(CCN2CCOCC2)CC1 [Example 388, N-hydroxy-1-[2-(4-morpholinyl)-ethyl]-4-[(4-(4-(trifluoromethyl)phenoxy]-phenyl]sulfonyl]-4-piperidinecarboxamide, dihydrochloride]	0.94	–
